We go through 4 compounds from patent US12678512B2, “Anti-EGFR antibody-drug conjugate with a cyclic dinucleotide derivative” (DAIICHI SANKYO COMPANY, LIMITED, priority 2020, dated 2026).

In assay [1] the test system is CT26.WT-chimeraEGFR cells subcutaneously transplanted in BALB/c mouse. The assay can be described thus: Anti-tumor test (5). Format: in vivo. The settings on record: 0.01 mg/kg into the tail vein once on Day 7, FIG. 24. Here is the method: Then, the supernatant was collected, and the CT26.WT was infected therewith.
In addition, the vehicle group was provided in which acetate buffer was administered. The number of mice in each group was 8.

In assay [2] the test system is mouse bone marrow-derived dendritic cells. Description: Co-culture assay with CT26.WT or CT26.WT-hCD70 cell line and mouse bone marrow-derived dendritic cells. Format: cell-based. The settings on record: conditions DC, 20 h incubation, FIG. 12. From the text:
CT26.WT (CRL2638), a mouse colon cancer cell line purchased from American Type Culture Collection, was transduced with human CD70 gene (NP_001243) to establish CT26.WT-hCD70 cells. Specifically, a pLVSIN lentiviral vector (Takara Bio), in which the human CD70 gene was inserted, was constructed. Next, Lenti-X293T cell line (Takara Bio) was transfected with the vector using a Lentiviral High Titer Packaging Mix (Takara Bio). Then, the supernatant was collected, and the CT26.WT was infected therewith. The cells were maintained in medium supplemented with 10 μg/mL puromycin (Thermo Fisher Scientific).
Mouse bone marrow cells were collected from the femur of 5-week-old female BALB/c mice (BALB/cAnNCrlCrlj) (Charles River, Japan). The mouse bone marrow cells were cultured in the presence of […] murine GM-CSF (PEPROTECH) for 7 days to obtain mouse bone marrow-derived dendritic cells. 1.5×10^5 CT26.WT or CT26.WT-hCD70 cell line cells and 1×10^5 mouse bone marrow-derived dendritic cells were seeded per well of a 96-well plate. Each test compound was diluted in RPMI medium (Invitrogen), and 200 μL was added. […] The cells were washed with FCM buffer again and analyzed using a Fortessa (BD Biosciences). MFI of CD86 in CD45^+, CD11c^+, and I-A/I-E^+ fraction was calculated. Then, the ratio with respect to the test compound-free group was calculated. […]

In assay [3] the target is human STING (THP1-Dual cells, HAQ mutant; IRF3 pathway) (Homo sapiens, UniProt Q86WV6, G230A/H232R/R293Q/R71H). The assay can be described thus: Reporter gene assay, human STING agonist activity in THP1-Dual cells. In general terms: In a reporter assay the amount or activity of a reporter protein is the signal.
Sequence of human STING (THP1-Dual cells, HAQ mutant; IRF3 pathway) (Q86WV6 whole entry R71H/G230A/H232R/R293Q, the tested form may be a part): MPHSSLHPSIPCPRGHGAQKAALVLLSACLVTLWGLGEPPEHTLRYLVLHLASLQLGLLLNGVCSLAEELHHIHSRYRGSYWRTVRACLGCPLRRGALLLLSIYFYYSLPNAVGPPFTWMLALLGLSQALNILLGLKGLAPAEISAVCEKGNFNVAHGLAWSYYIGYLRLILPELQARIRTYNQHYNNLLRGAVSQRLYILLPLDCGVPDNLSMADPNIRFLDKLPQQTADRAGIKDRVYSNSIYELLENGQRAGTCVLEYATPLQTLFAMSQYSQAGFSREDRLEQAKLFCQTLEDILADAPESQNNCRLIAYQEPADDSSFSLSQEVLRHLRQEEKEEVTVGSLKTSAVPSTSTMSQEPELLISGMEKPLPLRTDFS
Description: Human STING agonist activity was evaluated using THP1-Dual™ cells (HAQ mutant) (InvivoGen, CA, US), in which activation of the interferon regulatory factor-3 (IRF3) pathway, which is downstream of the STING pathway, could be checked.
The assay was conducted as follows. First, each test compound diluted in PBS was dispensed at 20 μL/well of a transparent 96-well plate (Corning, NY, US). […] The cells were cultured for 24 h under conditions at 37° C. and 5% CO2, and then centrifuged to collect the supernatant. Next, 6 μL of the collected supernatant was added to a white 384-well plate, and 15 μL of QUANTI-Luc (InvivoGen) solution was added thereto. After well mixing, the luminescence was measured using a plate reader (PerkinElmer, MA, US).
Assay [4] addresses T1, human wild-type (Hu-WT) STING C-terminal binding domain protein (Homo sapiens, UniProt Q86WV6, H232R).
T1 construct: made in house; host or cells: E. coli Rosetta 2 (DE3), co-expressed with BirA
Description: Protein thermal shift assay, STING binding. The settings on record: test compound final concentration 0.5 mM. Here is the method:
(§1) Each expression strain was added to TB broth containing 100 μg/mL ampicillin, 50 μg/mL streptomycin, and 30 μg/mL kanamycin, and cultured at 37° C. The expression was then induced with 100 μM IPTG, and the cells were further cultured at 16° C.
(§2) The culture broth was centrifuged, and the obtained bacteria were suspended in 50 mM HEPES pH8.0, 500 mM NaCl, 20 mM imidazole, 1 mM DTT, 5% (w/v) glycerol, and cOmplete EDTA free, and then frozen and thawed. After the addition of lysozyme and DNase I, the proteins were extracted by sonication, and the supernatant was collected by centrifugation. The resulting supernatant was purified through a HisTrap FF column (GE Healthcare) using an AKTAexpress chromatography system (GE Healthcare, IL, US), made to pass through a Superdex200 16/60 column (GE Healthcare), and eluted with a buffer (20 mM HEPES pH 7.5, 120 mM NaCl, 20% glycerol, 0.8 mM DTT). […] The protein concentration was measured using a Nanodrop 2000 (Thermo Fisher Scientific, MA, US), and each protein was frozen and stored at −80° C. until use.
(§3) The binding of a compound to each STING C-terminal binding domain protein was determined by the protein thermal shift assay, which uses the increase in the thermal denaturation temperature of the protein as an indicator.
(§4) Specifically, an assay buffer (20 mM Tris-HCl pH7.5, 120 mM NaCl) was applied to wells of a 384-well real-time PCR plate. Next, 3 μL of each test compound (final concentration 0.5 mM), 3 μL of SYPRO Orange Protein Gel Stain (Thermo Fisher Scientific) (final concentration: 20× concentration), and 6 μL of the STING protein were mixed in each well while using a plate shaker. A real-time PCR system (Thermo Fisher Scientific) was used to increase the temperature from 25° C. to 95° C. at a rate of 0.03° C. per second, and the thermal denaturation temperature of the protein was measured using the fluorescence emitted by SYPRO Orange as an indicator. The measured values were analyzed using Protein Thermal Shift software (Thermo Fisher Scientific) to determine Tm (the midpoint of the unfolding transition) (° C.) as the temperature at which the rate of increase in fluorescence intensity reached its maximum value. The shift of Tm by the test compound was calculated as ΔTm (° C.) by subtracting, from the Tm value of each compound, the Tm value of the well without the compound.

The target of assay [5] is T2, human HAQ mutant (Hu-HAQ) STING C-terminal binding domain protein (Homo sapiens, UniProt Q86WV6, G230A/H232R/R293Q).
T2 construct: made in house; host or cells: E. coli Rosetta 2 (DE3), co-expressed with BirA
T2 sequence (Q86WV6 with tags, fused parts or gaps G230A/H232R/R293Q): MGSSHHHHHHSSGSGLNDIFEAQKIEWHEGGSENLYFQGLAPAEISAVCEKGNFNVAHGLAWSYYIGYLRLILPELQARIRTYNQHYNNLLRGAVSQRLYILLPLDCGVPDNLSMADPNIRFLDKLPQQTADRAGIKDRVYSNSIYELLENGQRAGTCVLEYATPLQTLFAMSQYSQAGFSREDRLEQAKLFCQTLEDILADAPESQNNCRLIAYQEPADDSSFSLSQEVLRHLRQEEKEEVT
The assay can be described thus: Protein thermal shift assay, STING binding. Conditions: test compound final concentration 0.5 mM. Here is the method: as §1, §2, §3, §4

For assay [6], the target named is T3, human REF mutant (Hu-REF) STING C-terminal binding domain protein (Homo sapiens, UniProt Q86WV6).
T3 construct: made in house; host or cells: E. coli Rosetta 2 (DE3), co-expressed with BirA
T3 sequence (Q86WV6 with tags, fused parts or gaps, change not shown): as the sequence (Q86WV6 with tags, fused parts or gaps G230A/H232R/R293Q) above, with A131G, R133H, Q194R counted along it
The assay can be described thus: Protein thermal shift assay, STING binding. Conditions: test compound final concentration 0.5 mM. Here is the method: as §1, §2, §3, §4

In assay [7] the target is T4, mouse wild type (Ms-WT) STING C-terminal binding domain protein (Mus musculus, UniProt Q3TBT3).
T4 construct: made in house; host or cells: E. coli Rosetta 2 (DE3), co-expressed with BirA
T4 sequence (Q3TBT3 with tags, fused parts or gaps): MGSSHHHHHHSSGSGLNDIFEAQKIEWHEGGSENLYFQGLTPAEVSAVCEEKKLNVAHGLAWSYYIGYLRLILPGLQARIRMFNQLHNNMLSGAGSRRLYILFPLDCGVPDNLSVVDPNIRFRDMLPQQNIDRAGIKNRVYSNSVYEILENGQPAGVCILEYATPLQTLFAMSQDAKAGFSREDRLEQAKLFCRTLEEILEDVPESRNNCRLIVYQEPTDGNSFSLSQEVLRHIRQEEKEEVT
Description: Protein thermal shift assay, STING binding. Conditions: test compound final concentration 0.5 mM. The protocol:
as §1, §2, §3, §4

The subject of assay [8] is CT26.WT-hEGFR cells subcutaneously transplanted in BALB/c mouse. Description: Anti-tumor test (2). Format: in vivo. The settings on record: 1.5 mg/kg into the tail vein once on Day 12, FIG. 15. The text has this: CT26.WT (CRL2638), a mouse colon cancer cell line purchased from American Type Culture Collection, was transduced with the human EGFR gene (NP_005219.2) to establish CT26.WT-hEGFR cells. Specifically, a pLVSIN lentiviral vector (Takara Bio), in which the human EGFR gene was inserted, was constructed. Next, Lenti-X293T cell line (Takara Bio) was transfected with the vector using a Lentiviral High Titer Packaging Mix (Takara Bio). Then, the supernatant was collected, and the CT26.WT was infected therewith. The cells were maintained in medium supplemented with 10 μg/mL puromycin (Thermo Fisher Scientific).
CT26.WT-hEGFR cells were suspended in saline. Ne×t, 3×10^6 cells were transplanted subcutaneously into the right axillary region of each BALB/c mouse (Day 0), and random grouping was conducted after 12 days. […] In addition, the vehicle group was provided in which acetate buffer was administered. The number of mice in each group was 8.

T1 sequence (Q86WV6 with tags, fused parts or gaps H232R): as the sequence (Q86WV6 with tags, fused parts or gaps G230A/H232R/R293Q) above, with A131G, Q194R counted along it

For orientation: EC50 means the concentration at which the effect is half-maximal. A high value points to a less potent agent. Consider `O=c1c2ncn([C@@H]3O[C@@H]4COP(=O)(S)O[C@H]5[C@@H](F)[C@H](n6cc7c8c(ncnc86)NCCC7)O[C@@H]5COP(=O)(S)O[C@@H]3[C@@H]4O)c2ncn1CCO` (single isomer, unassigned) [Compound 34a], for which the “tumor growth (tumor volume)” value in assay [1] is given as “tumor growth was not inhibited”. The “CD86 expression on mouse dendritic cells (ratio of MFI with respect to the compound-free group)” value in assay [2] was “caused an increase in CD86 expression on mouse dendritic cells in all conditions”. Moreover, the EC50 in assay [3] was determined as 0.2 µM.
As usually defined, the ΔTm is the shift of the melting midpoint relative to a reference. In the case of `O=c1c2ncn([C@@H]3O[C@@H]4COP(=O)(S)O[C@H]5[C@@H](O)[C@H](n6cc7c8c(ncnc86)NCCC7)O[C@@H]5COP(=O)(S)O[C@@H]3[C@@H]4O)c2ncn1CCO` (single isomer, unassigned) [Compound 6b], the thermal shift (ΔTm) at 500 µM was determined as 8.4 °C in assay [4], 11.3 °C in assay [5], 3.4 °C in assay [6] and 12.9 °C in assay [7]. This compound also displayed an EC50 in assay [3] of 2.1 µM.
As to `O=C(CO)NCCn1cnc2c(ncn2[C@@H]2O[C@@H]3COP(=O)(S)O[C@H]4[C@@H](F)[C@H](n5cc6c7c(ncnc75)SCCC6)O[C@@H]4COP(=O)(S)O[C@@H]2[C@@H]3O)c1=O` (single isomer, unassigned) [Compound 50b], the ΔTm at 500 µM in assay [5] amounted to 15.3 °C; in assay [6], 6.3 °C; in assay [7], 7.4 °C.
Turning to “anti-EGFR antibody 1: IgG1 isotype with LALA mutation, produced with reference to the Vectibix review report; light chain SEQ ID NO: 9, heavy chain SEQ ID NO: 10”, the “tumor growth (tumor volume)” value in assay [8] is recorded as “tumor growth was not inhibited”.
